Results on 23 molecules are retold here after US20250388565A1, “ESTROGEN RECEPTOR ALPHA DEGRADERS AND METHODS OF USE THEREOF” (Relay Therapeutics, Inc., priority 2022, published 2025).

The test addresses T1, ERα protein (HiBiT-tagged) in ESR1_HiBiT KI MCF7 cells (Homo sapiens, UniProt P03372).
T1 sequence (P03372 1-595): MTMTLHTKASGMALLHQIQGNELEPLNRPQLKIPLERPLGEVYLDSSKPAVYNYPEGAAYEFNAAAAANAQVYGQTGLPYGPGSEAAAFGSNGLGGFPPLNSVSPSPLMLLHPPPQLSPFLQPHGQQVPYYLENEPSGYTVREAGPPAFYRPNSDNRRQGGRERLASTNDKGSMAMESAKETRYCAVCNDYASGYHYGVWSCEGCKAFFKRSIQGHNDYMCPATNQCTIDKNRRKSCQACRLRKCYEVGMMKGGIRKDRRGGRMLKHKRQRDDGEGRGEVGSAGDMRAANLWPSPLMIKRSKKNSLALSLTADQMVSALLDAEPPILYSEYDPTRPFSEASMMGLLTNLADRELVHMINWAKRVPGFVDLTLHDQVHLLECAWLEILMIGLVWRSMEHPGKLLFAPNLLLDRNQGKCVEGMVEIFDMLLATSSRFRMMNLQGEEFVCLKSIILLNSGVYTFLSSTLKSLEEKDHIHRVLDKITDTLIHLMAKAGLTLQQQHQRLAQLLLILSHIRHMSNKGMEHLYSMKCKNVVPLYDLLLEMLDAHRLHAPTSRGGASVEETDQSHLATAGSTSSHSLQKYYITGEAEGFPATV
Briefly: Nano Glo HiBiT Lytic Degradation Assay. As to conditions: 6 hours with compound, 14-point dose response 1:3, bell-shape curve fit, half-maximal effect of first Hill model, read-out: MCF7 ESR1 HiBiT - (DC50). Type of test: cell-based. The method, then:
Selected compounds of the present disclosure were tested in a Nano Glo HiBiT Lytic Degradation Assay to measure the level of ERα protein degradation in MCF7 cells.
Cell culture: ESR1_HiBiT KI MCF7 cells were maintained in growth media without antibiotics. Cells were maintained in exponential growth phase, between 40% and 90% confluency.
Cell seeding: Cells were counted using a Vi-Cell and seeded in a 384-well flat-bottom microplate (cell culture-treated) at 4000 cells/well in 25 μL of growth medium using a BioTek MultiFlo Multimode Dispenser. Plates were incubated for 24 h at 37° C., 5% CO2, >95% relative humidity.
Compound preparation: Compounds were screened as 14-point dose response curves 1:3 dilutions. DMSO is used as the vehicle control and all wells were normalized to the same final DMSO concentration (0.1% v/v). Compounds were dosed using an Echo Acoustic Liquid Handler, 25 nL of 1000× (10 mM top concentration) DMSO stock/well. Cells were incubated with compounds for 6 hours at 37° C., 5% CO2, >95% relative humidity. Each compound was run in duplicate.
Nano Glo HiBiT Lytic Degradation Assay: HiBiT-tagged ERα protein levels were quantified using a Nano Glo HiBiT Lytic Degradation Assay following the manufacturer's protocol. Briefly, the Nano-Glo® HiBiT Lytic Reagent was prepared by diluting the LgBiT Protein reagent (1:100) and the Nano-Glo® HiBiT Lytic Substrate (1:50) into Nano-Glo® HiBiT Lytic Buffer at room temperature. The 384-well microplate were equilibrated to room temperature and 25 μL of Nano-Glo® HiBiT Lytic Reagent was added to each well. Samples were mixed by placing the 384-well microplate on an orbital shaker for 10 minutes. Luminescence was measured using an EnVision 2105 Multimode Plate Reader.
Data processing and analysis: Background signal (wells containing growth medium without cells) was subtracted from individual relative light units (RLU) values and the resulting values were normalized to the DMSO control well values. Dose responses were analyzed with Genedata Screener® using a bell-shape curve fit and the concentrations corresponding to the half-maximal effect of the first Hill model were used as DC50 values.
A general note: HiBiT is a short tag that completes a luciferase, so light tracks the accessible tagged protein.
Consider `O=C1CC[C@H](N2Cc3cc(N4CCN(CC5CCN(c6ccc([C@H]7c8ccc(O)cc8CC[C@H]7c7ccccc7)nc6)CC5)CC4)ccc3C2=O)C(=O)N1` [II-77], for which the DC50 was no less than 10000 nM.

For the molecule `O=C1CC[C@H](N2Cc3cc(N4CCN(CC5CCN(c6cc(F)c([C@@H]7c8ccc(O)cc8CC[C@@H]7c7ccccc7)c(F)c6)CC5)CC4)ccc3C2=O)C(=O)N1` [II-102], the DC50 was 0.15 nM.

As for `O=C1CC[C@H](N2Cc3cc(N4CCN(CC5CCN(c6ccc([C@@H]7c8ccc(O)cc8C(F)(F)C[C@@H]7c7ccccc7F)cc6)CC5)CC4)ccc3C2=O)C(=O)N1` [Compound I-312, (S)-3-(5-(4-((1-(4-((1R,2S)-4,4-difluoro-2-(2-fluorophenyl)-6-hydroxy-1,2,3,4-tetrahydronaphthalen-1-yl)phenyl)piperidin-4-yl)methyl)piperazin-1-yl)-1-oxoisoindolin-2-yl)piperidine-2,6-dione], the DC50 came out at 0.37 nM.

In the case of `O=C1CC[C@H](N2Cc3cc(N4CCN(CC5CCN(c6ccc([C@H]7c8ccc(O)cc8C(F)(F)C[C@H]7c7ccccc7)nc6)CC5)CC4)ccc3C2=O)C(=O)N1` [Compound I-337, (S)-3-(5-(4-((1-(6-((1R,2R)-4,4-difluoro-6-hydroxy-2-phenyl-1,2,3,4-tetrahydronaphthalen-1-yl)pyridin-3-yl)piperidin-4-yl)methyl)piperazin-1-yl)-1-oxoisoindolin-2-yl)piperidine-2,6-dione], the DC50 was no less than 10000 nM.

For the molecule `O=C1CC[C@H](N2Cc3cc(N4CCN(CC5CCN(c6ccc([C@@H]7c8ccc(O)cc8CO[C@@]78CCCc7ccccc78)cc6)CC5)CC4)ccc3C2=O)C(=O)N1` [Compound I-76, (S)-3-(5-(4-((1-(4-((3S,4R)-7-hydroxy-3′,4′-dihydro-2′H-spiro[isochromane-3,1′-naphthalen]-4-yl)phenyl)piperidin-4-yl)methyl)piperazin-1-yl)-1-oxoisoindolin-2-yl)piperidine-2,6-dione], the DC50 stood at 0.21 nM.

On to `C[C@@]1(C2CCCCC2)CCc2cc(O)ccc2[C@H]1c1ccc(N2CCC(CN3CCN(c4ccc5c(c4)CN([C@H]4CCC(=O)NC4=O)C5=O)CC3)CC2)cc1` [Compound I-240, (S)-3-(5-(4-((1-(4-((1R,2S)-2-cyclohexyl-6-hydroxy-2-methyl-1,2,3,4-tetrahydronaphthalen-1-yl)phenyl)piperidin-4-yl)methyl)piperazin-1-yl)-1-oxoisoindolin-2-yl)piperidine-2,6-dione], for which the DC50 came to 3 nM.

In the case of `O=C1CC[C@H](N2Cc3cc(N4CCN(CC5CCN(c6ccc([C@@H]7c8ccc(O)cc8CC[C@@H]7c7ccc8c(c7)CCCC8)cc6)CC5)CC4)ccc3C2=O)C(=O)N1` (single isomer, unassigned) [Compound I-59], the DC50 was determined as 906 nM.

In the case of `O=C1CC[C@H](N2Cc3cc(N4CCN(CC5CCN(c6ccc([C@H]7c8ccc(O)cc8CC[C@H]7c7cccc8c7CCCC8)cc6)CC5)CC4)ccc3C2=O)C(=O)N1` (single isomer, unassigned) [Compound I-61], the DC50 is no less than 10000 nM.

Consider `C[C@@]1(C2CCCCC2)OCc2cc(O)ccc2[C@H]1c1ccc(N2CCC(CN3CCN(c4ccc5c(c4)CN([C@H]4CCC(=O)NC4=O)C5=O)CC3)CC2)cc1` [Compound I-258, (S)-3-(5-(4-((1-(4-((3S,4R)-3-cyclohexyl-7-hydroxy-3-methylisochroman-4-yl)phenyl)piperidin-4-yl)methyl)piperazin-1-yl)-1-oxoisoindolin-2-yl)piperidine-2,6-dione], for which the DC50 is 1 nM.

With `O=C1CC[C@H](c2ccc(N3CCC4(CCN(CC5CCN(c6ccc([C@@H]7c8ccc(O)cc8CO[C@@H]7c7ccccc7)cc6)CC5)C4)CC3)cc2)C(=O)N1` (single isomer, unassigned) [Compound I-389], the DC50 stood at 0.28 nM.

As to `O=C1CC[C@H](N2Cc3cc(N4CCN(CC5CCN(c6ccc([C@H]7c8ccc(O)cc8CC[C@H]7c7ccccc7)cn6)CC5)CC4)ccc3C2=O)C(=O)N1` [II-79], the DC50 is no less than 10000 nM.

`C[C@H]1CN(c2ccc3c(c2)CN([C@H]2CCC(=O)NC2=O)C3=O)CCN1CC1CCN(c2ccc([C@H]3c4ccc(O)cc4CC[C@H]3c3ccccc3)cc2)CC1` (single isomer, unassigned) [II-11]: the DC50 was no less than 10000 nM.

In the case of `CC(C)C[C@@H]1OCc2cc(O)ccc2[C@H]1c1ccc(N2CCC(CN3CCN(c4ccc5c(c4)CN([C@H]4CCC(=O)NC4=O)C5=O)CC3)CC2)cc1` (single isomer, unassigned) [Compound I-222], the DC50 was 0.32 nM.

`O=C1CC[C@H](N2Cc3cc(N4CCN(CCC5CCN(c6ccc([C@@H]7c8ccc(O)cc8CC[C@@H]7c7ccccc7)cc6)CC5)CC4)ccc3C2=O)C(=O)N1` [II-97]: the DC50 came out at 0.79 nM.

For `COc1cc(N2CCC(CN3CCN(c4ccc5c(c4)CN([C@H]4CCC(=O)NC4=O)C5=O)CC3)CC2)c(-c2ccccc2)cc1[C@H]1CCC(F)(F)c2cc(O)ccc21` [Compound I-406], the DC50 worked out at 25 nM.

As to `O=C1CC[C@H](N2Cc3cc(N4CCN(CC5CCN(c6ccc([C@H]7c8ccc(O)cc8CO[C@H]7c7ccccc7F)cc6)CC5)CC4)ccc3C2=O)C(=O)N1` [Compound I-348, (S)-3-(5-(4-((1-(4-((3R,4S)-3-(2-fluorophenyl)-7-hydroxyisochroman-4-yl)phenyl)piperidin-4-yl)methyl)piperazin-1-yl)-1-oxoisoindolin-2-yl)piperidine-2,6-dione], the DC50 was no less than 10000 nM.

Turning to `O=C1CCC(N2Cc3cc(N4CCN(CC5CCN(c6c(F)cc([C@@H]7c8ccc(O)cc8CC[C@@H]7C7CCCCC7)cc6F)CC5)CC4)ccc3C2=O)C(=O)N1` (stereo in doubt) [Compound I-159, (R)-3-(5-(4-((1-(4-((1R,2R)-2-cyclohexyl-6-hydroxy-1,2,3,4-tetrahydronaphthalen-1-yl)-2,6-difluorophenyl)piperidin-4-yl)methyl)piperazin-1-yl)-1-oxoisoindolin-2-yl)piperidine-2,6-dione], the DC50 was 10 nM.

For `O=C1CC[C@H](N2Cc3cc(N4CCN(CC5CCN(c6ccc([C@@H]7c8ccc(O)c(Cl)c8CC[C@@H]7c7ccccc7)cc6Cl)CC5)CC4)ccc3C2=O)C(=O)N1` [II-64], the DC50 turned out to be 16 nM.

In the case of `O=C1CC[C@H](N2Cc3cc(N4CCN(CC5CCN(c6ccc([C@H]7c8ccc(O)cc8CO[C@H]7c7ccc(C(F)(F)F)cc7)cc6)CC5)CC4)ccc3C2=O)C(=O)N1` (single isomer, unassigned) [Compound I-56], the half-maximal degradation concentration (DC50) is 7.75 nM.

Turning to `O=C1CC[C@H](N2Cc3cc(N4CCN(CC5CCN(c6ccc([C@H]7c8ccc(O)cc8CC[C@H]7C7CCCCC7)cc6)CC5)CC4)ccc3C2=O)C(=O)N1` [Compound I-5, (3S)-3-[5-[4-[[1-[4-[(1S,2S)-2-cyclohexyl-6-hydroxy-tetralin-1-yl]phenyl]-4-piperidyl]methyl]piperazin-1-yl]-1-oxo-isoindolin-2-yl]piperidine-2,6-dione], the DC50 is no less than 10000 nM.

Take `O=C1CCC(c2ccc(N3CCN(CCC4CCN(c5ccc([C@@H]6c7ccc(O)cc7CC[C@@H]6c6ccccc6)cc5)CC4)CC3)cc2)C(=O)N1` (single isomer, unassigned) [Compound I-8]: the DC50 was no less than 10000 nM.

Consider `Cc1cc(F)cc(C)c1[C@H]1CCc2cc(O)ccc2[C@H]1c1ccc(N2CCC(CN3CCN(c4ccc5c(c4)CN([C@H]4CCC(=O)NC4=O)C5=O)CC3)CC2)cc1` [II-72], for which the DC50 was no less than 10000 nM.

For the molecule `Cc1cc(F)cc([C@@H]2OCc3cc(O)ccc3[C@@H]2c2ccc(N3CCC(CN4CCN(c5ccc6c(c5)CN([C@H]5CCC(=O)NC5=O)C6=O)CC4)CC3)cc2)c1` [Compound I-378, (S)-3-(5-(4-((1-(4-((3R,4S)-3-(3-fluoro-5-methylphenyl)-7-hydroxyisochroman-4-yl)phenyl)piperidin-4-yl)methyl)piperazin-1-yl)-1-oxoisoindolin-2-yl)piperidine-2,6-dione], the DC50 is no less than 10000 nM.

As a reminder, the DC50 is the concentration at which degradation of the target reaches its halfway point.
